These results are taken from ChEMBL document CHEMBL1201862, “PubChem BioAssay data set” (2004).

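These data come from cells grown in 96-well plates and exposed to compound for 48 hours at five concentrations. GI50 is the concentration that inhibits growth by half.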 Activity calls are given as the source filed them. Cut-off read from the data, not from the text of the source: active = GI50 up to about 1.1 µM and inactive = higher. Non-standard residues stand in square brackets, D forms with d. Residues, ends and D or L forms follow the SMILES beside them. ξ: configuration not given here. Pen = CC(C)(S)[C@H](N)C(=O)O; ξL = CC(C)CC(N)C(=O)O

Test systems include NCI/ADR-RES; MOLT-4; A498; HCT-15; SK-MEL-28; HT-29; OVCAR-8; RPMI-8226; SNB-75; CCRF-CEM; UACC-257; SF-539; SK-MEL-5; NCI-H460; UACC-62; CAKI-1; TK-10; M14; ACHN.
Common to all, as to experiment: NCI anticancer screen, dose series, 48 h

As to `CCCCCCSc1nc(N)nc2nc[nH]c12`, the GI50 was 37.5 µM (inactive) in the test with NCI/ADR-RES; > 55.2 µM (inactive) with MOLT-4; 26.9 µM (inactive) with A498; 35.4 µM in the test on HCT-15; 59.3 µM (inactive) in the test on SK-MEL-28; 34.4 µM (inactive) in the test on HT-29. In addition, the GI50 was 42.5 µM (inactive) in the test on OVCAR-8; 60.1 µM (inactive) in the test with RPMI-8226; 17 µM (inactive) with SNB-75; 46.6 µM (inactive) in the test on CCRF-CEM; 37.7 µM (inactive) in the test with UACC-257; 35.3 µM (inactive) with SF-539. For the same compound, the values for the GI50 with SK-MEL-5, with NCI-H460 and in the test with UACC-62 were 20.3 µM (inactive), 39.3 µM (inactive) and 37 µM (inactive), respectively.

Take `Cc1cc(O)c2c(c1O)C(=O)C13C(=C(O)C4C(O)C1C1C(O)C3C(O)=C3C(=O)c5c(O)cc(C)c(O)c5C(=O)C341)C2=O` (stereo not given): the GI50 is 0.15 µM (active) with NCI/ADR-RES; 0.0541 µM (active) with MOLT-4; 0.0362 µM (active) in the test on A498; 0.0367 µM with HCT-15; 0.106 µM (active) with SK-MEL-28; 0.0451 µM (active) with HT-29. The GI50 in the test with OVCAR-8 was 0.0615 µM (active); in the test on RPMI-8226 it was 0.0121 µM (active); in the test on SNB-75, 0.0499 µM (active); in the test on CCRF-CEM it was 0.035 µM (active); in the test on UACC-257 it was 0.267 µM (active); in the test on SF-539 it was 0.134 µM (active). Moreover, the GI50 in the test on CAKI-1 was 0.209 µM (active); in the test on SK-MEL-5 it was 0.15 µM (active); in the test with NCI-H460, 0.0348 µM (active); with UACC-62, 0.0489 µM (active).

As to `CCOC(=O)/C=C/c1c[nH]c(C(=O)OCC)c1`, the GI50 in the test with NCI/ADR-RES was > 100 µM (inactive); with MOLT-4, > 100 µM (inactive); in the test with A498, > 100 µM (inactive); in the test with HCT-15, more than 100 µM; with SK-MEL-28, > 100 µM (inactive); in the test on HT-29, > 100 µM (inactive). Besides, the GI50 with OVCAR-8 was > 100 µM (inactive); in the test on RPMI-8226, > 100 µM (inactive); in the test with SNB-75, > 66.1 µM (inactive); in the test with CCRF-CEM, > 100 µM (inactive); in the test on UACC-257, > 100 µM (inactive); in the test on SF-539, > 100 µM (inactive). For the same compound, the GI50 in the test on CAKI-1 was > 100 µM (inactive); in the test on SK-MEL-5 it was > 100 µM (inactive); in the test on NCI-H460, > 100 µM (inactive); in the test with UACC-62, > 69.3 µM (inactive).

On to `COc1ccc2c(c1)c1c(n2CCN(C)C)-c2ccccc2CC1`, for which the GI50 in the test with NCI/ADR-RES was 16.8 µM (inactive); in the test on MOLT-4, 13.2 µM (inactive); with HCT-15 it was 13.7 µM; in the test with SK-MEL-28, 15 µM (inactive); in the test on HT-29, 7.78 µM (inactive); with OVCAR-8, 16.9 µM (inactive). The GI50 in the test with TK-10 was 15.9 µM (inactive); with RPMI-8226 it was 13.7 µM (inactive); in the test on M14, 15.6 µM (inactive); in the test with ACHN, 16.4 µM (inactive); in the test on SNB-75, 13.7 µM (inactive); in the test on CCRF-CEM, 11.3 µM (inactive). Moreover, the GI50 with UACC-257 is 16.3 µM (inactive); in the test on SF-539, 14 µM (inactive); in the test on CAKI-1, 14.3 µM (inactive); in the test with SK-MEL-5, 14.9 µM (inactive); in the test on NCI-H460, 16.7 µM (inactive); in the test with UACC-62, 14.5 µM (inactive).

Take `CN(C)CCNC(=O)c1cc(Cl)cc2cc3ccccc3nc12`: the GI50 with NCI/ADR-RES was 0.766 µM (active); in the test with MOLT-4, 0.396 µM (active); in the test with A498 it was 0.179 µM (active); in the test on HCT-15, 0.755 µM; in the test with SK-MEL-28, 1.76 µM (inactive); with HT-29 it was 0.455 µM (active). Moreover, the GI50 in the test on OVCAR-8 was 0.542 µM (active); in the test with RPMI-8226, 0.721 µM (active); in the test with SNB-75 it was 2.27 µM (inactive); in the test with CCRF-CEM, 0.498 µM (active); in the test on UACC-257 it was 1.6 µM (inactive); with SF-539 it was 1.62 µM (inactive). Further, the GI50 was 1.31 µM (inactive) in the test with SK-MEL-5, 0.311 µM (active) in the test on NCI-H460 and 0.652 µM (active) with UACC-62.

As to `CSCC[C@H](NC(=O)C(CC(C)C)NC(=O)[C@H](Cc1c[nH]cn1)NC(=O)CNC(=O)[C@@H](NC(=O)[C@@H](C)NC(=O)[C@H](Cc1c[nH]c2ccccc12)NC(=O)[C@H](CCC(N)=O)NC(=O)[C@@H](N)CC(N)=O)C(C)(C)SC)C(N)=O` (stereo not given in full) (H-NQW[dA][Pen](Me)GH[ξL]M-NH2), the GI50 was > 100 µM (inactive) with NCI/ADR-RES; > 100 µM (inactive) in the test on MOLT-4; > 100 µM (inactive) with A498; more than 100 µM with HCT-15; > 100 µM (inactive) with SK-MEL-28; > 100 µM (inactive) in the test on HT-29. Besides, the GI50 in the test on OVCAR-8, in the test with SNB-75, in the test on CCRF-CEM, in the test on UACC-257, in the test with SF-539 and in the test on CAKI-1 was > 100 µM (inactive) in each case. Moreover, the GI50 in the test on SK-MEL-5, with NCI-H460 and with UACC-62 was > 100 µM (inactive) in each case.

For `COC(=O)C1C(O)C(C)C(O)C(C)(O)/C=C\C=C(C)C(=O)Nc2c(C)c(OC(C)=O)c3c(c2O)C(=O)C(C)=C2OCOC(=C23)C(C)=CC(C)(O)C(O)C(C)C1OC(C)=O` (stereo not given), the GI50 with NCI/ADR-RES is > 100 µM (inactive); in the test with MOLT-4 it was 38 µM (inactive); with A498, 49.8 µM (inactive); with HCT-15 it was 35.5 µM; in the test on SK-MEL-28, 40.1 µM (inactive); with HT-29, 45.4 µM (inactive). Also, the GI50 is 49.3 µM (inactive) with OVCAR-8; 33.3 µM (inactive) with RPMI-8226; 31 µM (inactive) in the test on SNB-75; 34.7 µM (inactive) in the test on CCRF-CEM; 26.1 µM (inactive) in the test on UACC-257; 41.2 µM (inactive) with SF-539. Further, the GI50 in the test on CAKI-1 is 47.5 µM (inactive); in the test with SK-MEL-5, 30.3 µM (inactive); in the test on NCI-H460, 26.1 µM (inactive); in the test with UACC-62, 21.1 µM (inactive).

In the case of `C[S+](C)CC1OC(n2cnc3c(N)ncnc32)C(O)C1O` (stereo not given), the GI50 in the test on NCI/ADR-RES is > 225 µM (inactive); in the test with MOLT-4 it was > 225 µM (inactive); in the test on A498, > 225 µM (inactive); with HCT-15, more than 225 µM; in the test on SK-MEL-28, > 225 µM (inactive); in the test on HT-29, > 225 µM (inactive). Besides, the GI50 in the test on OVCAR-8, in the test on RPMI-8226, in the test with SNB-75, in the test on CCRF-CEM, in the test on UACC-257 and with SF-539 was > 225 µM (inactive) throughout. In addition, the GI50 in the test with CAKI-1 was > 225 µM (inactive); in the test with SK-MEL-5 it was > 225 µM (inactive); in the test with NCI-H460, > 225 µM (inactive); in the test with UACC-62, > 96.2 µM (inactive).

With `CN(C)CCOc1cc2c(c3ccccc13)-c1ccccc1C2=O`, the GI50 is 0.818 µM (active) with NCI/ADR-RES; 0.339 µM (active) with MOLT-4; 6.68 µM (inactive) in the test on A498; 1.18 µM in the test on HCT-15; 1.8 µM (inactive) in the test with SK-MEL-28; 1.19 µM (inactive) with HT-29. The GI50 in the test with OVCAR-8 is 0.895 µM (active); in the test with RPMI-8226, 1.56 µM (inactive); with SNB-75 it was 1.8 µM (inactive); in the test on CCRF-CEM, 1.52 µM (inactive); in the test on UACC-257 it was 1.72 µM (inactive); in the test with SF-539 it was 1.76 µM (inactive). Moreover, the GI50 with CAKI-1 was 0.388 µM (active); in the test with SK-MEL-5, 1.58 µM (inactive); with NCI-H460 it was 0.675 µM (active); with UACC-62, 1.8 µM (inactive).

As to `c1ccc(OCc2nnc(CCCCCCCCc3nnc(COc4ccccc4)o3)o2)cc1`, the GI50 in the test with NCI/ADR-RES was > 100 µM (inactive); in the test on MOLT-4, > 100 µM (inactive); in the test on A498, > 100 µM (inactive); in the test with HCT-15, more than 100 µM; in the test on SK-MEL-28, > 100 µM (inactive); in the test on HT-29, > 100 µM (inactive). For the same compound, the GI50 with OVCAR-8 is 28.9 µM (inactive); in the test with TK-10, > 100 µM (inactive); in the test with M14, > 100 µM (inactive); with ACHN, > 100 µM (inactive); with SNB-75 it was 28.1 µM (inactive); with CCRF-CEM, > 100 µM (inactive). Moreover, the GI50 was > 100 µM (inactive) in the test with UACC-257; 32.2 µM (inactive) with SF-539; > 100 µM (inactive) with CAKI-1; > 100 µM (inactive) in the test with SK-MEL-5; > 100 µM (inactive) in the test with NCI-H460.

Consider `O=C(O)C(F)(F)C(F)(F)C(F)(F)C(F)(F)C(F)(F)C(F)(F)C(F)(F)C(F)(F)F`, for which the GI50 in the test on NCI/ADR-RES was 44.9 µM (inactive); in the test with MOLT-4, > 100 µM (inactive); with A498 it was 38.3 µM (inactive); in the test with HCT-15, 27.4 µM; in the test on SK-MEL-28 it was > 100 µM (inactive); with HT-29, 48.2 µM (inactive). Further, the GI50 in the test with OVCAR-8 is 43.9 µM (inactive); in the test on TK-10 it was > 100 µM (inactive); in the test with M14, 28.1 µM (inactive); in the test on ACHN, 65.3 µM (inactive); in the test on SNB-75 it was 71.8 µM (inactive); in the test on CCRF-CEM it was 28.2 µM (inactive). Further, the GI50 with UACC-257 is > 100 µM (inactive); in the test with SF-539 it was 43.2 µM (inactive); with CAKI-1, > 100 µM (inactive); in the test on SK-MEL-5 it was 80 µM (inactive); with NCI-H460, 81.5 µM (inactive); in the test with UACC-62, > 100 µM (inactive).

Turning to `CC(=C(c1ccccc1)c1ccccc1)N1C(=O)CC(=O)N1C`, the GI50 in the test on NCI/ADR-RES is > 100 µM (inactive); with MOLT-4, 38.4 µM (inactive); in the test on SK-MEL-28, 55.5 µM (inactive); in the test with HT-29, > 100 µM (inactive); in the test with OVCAR-8, 99.1 µM (inactive); in the test with TK-10 it was 43.3 µM (inactive). Moreover, the GI50 in the test with RPMI-8226 was 32.6 µM (inactive); in the test on M14, 24.7 µM (inactive); in the test with ACHN, > 100 µM (inactive); with SNB-75, 67.6 µM (inactive); with CCRF-CEM it was 40 µM (inactive); in the test on UACC-257, > 100 µM (inactive). The GI50 with SF-539 is 26.3 µM (inactive); with CAKI-1 it was 21.1 µM (inactive); in the test on SK-MEL-5, 95.7 µM (inactive); in the test on NCI-H460, 29.2 µM (inactive); in the test on UACC-62 it was 26 µM (inactive).
